Test results from patent US9980943B2, “Methods of treating muscular dystrophy” (BOARD OF REGENTS OF THE NEVADA SYSTEM OF HIGHER EDUCATION, …, priority 2013, dated 2018).

What was measured:
Type in all cases: cell-based, mouse
[1] = test system: α7 integrin (LacZ reporter in α7βgal+/− myoblasts); experiment: Myoblast α7+/LacZ integrin FDG assay (Burkin assay in myoblasts, 96-well); details: 96-well; for Burkin Assay in Myoblasts, signal relative to DMSO: α7+/LacZ myoblasts; for Burkin Assay in Myoblasts, value relative to DMSO: SU9516 analogs, N=3-6
[2] = test system: α7 integrin (LacZ reporter in α7+/LacZ myotubes); experiment: Myotube α7 integrin FDG assay (Burkin assay in myotubes, 96-well); details: for Burkin Assay in Myotubes, value relative to DMSO: SU9516 analogs, 96-well, N=3-6
[3] = test system: β-galactosidase in CMV-LacZ C2C12 myoblasts; experiment: CMV-LacZ secondary screen in C2C12 myoblasts (β-Gal stabilizing assay); details: for CMV-LACZ in Myoblasts (β-galactosidase activity relative to DMSO): CMV-LacZ C2C12 myoblasts; for CMV-LACZ in Myoblasts, value relative to DMSO: SU9516 analogs, C2C12 CMV-LacZ, N=2
In short: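 CMV-LacZ C2C12 line (clonal, FDG-screened); myoblasts/myotubes dosed 0.5–40 μM (0.5, 1, 5, 10, 20, 40 μM); n=2 per point; β-gal stabilization read-out.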

[4] = test system: β-galactosidase in CMV-LacZ C2C12 myotubes; experiment: CMV-LacZ secondary screen in C2C12 myotubes (β-Gal stabilizing assay); details: for CMV-LACZ in Myotubes, signal relative to DMSO: C2C12 CMV-LacZ myotubes, fold relative to DMSO; for CMV-LACZ in Myotubes, value relative to DMSO: SU9516 analogs, C2C12 CMV-LacZ, N=2
In short: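 First, C2C12 myoblasts were transfected with a linearized CMV-LACZ vector and clonal lines selected by FDG β-gal assay. Then cells were exposed to compounds at 0.5, 1, 5, 10, 20 and 40 μM in 96-well format, two replicates each, and β-gal measured.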

**Q.** `CCCn1c(-c2cc(OC)c(OC)c(OC)c2)nc2c1c(=O)[nH]c(=O)n2Cc1ccccc1` [MLS001174740-01] was tested. Which “Burkin Assay in Myoblasts, signal relative to DMSO” value ([1]; 0.5 uM) did it give?
**A.** 1.221

**Q.** And the “Burkin Assay in Myoblasts, signal relative to DMSO” value ([1]; 1 uM)?
**A.** 1.193

**Q.** What about the “Burkin Assay in Myoblasts, signal relative to DMSO” value ([1]; 5 uM) of the same compound?
**A.** 0.8512

**Q.** And the “Burkin Assay in Myoblasts, signal relative to DMSO” value ([1]; 10 uM)?
**A.** 1.181

**Q.** What about the “Burkin Assay in Myoblasts, signal relative to DMSO” value ([1]; 20 uM) of the same compound?
**A.** 0.9658

**Q.** What about the “Burkin Assay in Myoblasts, signal relative to DMSO” value ([1]; 40 uM) of the same compound?
**A.** 0.5414

**Q.** What about the “Burkin Assay in Myotubes, α7 integrin LacZ reporter signal relative to DMSO” value ([2]; 0.5 uM) of the same compound?
**A.** 0.9078

**Q.** What about the “Burkin Assay in Myotubes, α7 integrin LacZ reporter signal relative to DMSO” value ([2]; 1 uM) of the same compound?
**A.** 0.8687

**Q.** And the “Burkin Assay in Myotubes, α7 integrin LacZ reporter signal relative to DMSO” value ([2]; 5 uM)?
**A.** 0.8574

**Q.** And the “Burkin Assay in Myotubes, α7 integrin LacZ reporter signal relative to DMSO” value ([2]; 10 uM)?
**A.** 0.9017

**Q.** And the “Burkin Assay in Myotubes, α7 integrin LacZ reporter signal relative to DMSO” value ([2]; 20 uM)?
**A.** 0.7823

**Q.** And the “Burkin Assay in Myotubes, α7 integrin LacZ reporter signal relative to DMSO” value ([2]; 40 uM)?
**A.** 0.7064

**Q.** And the “CMV-LACZ in Myoblasts (β-galactosidase activity relative to DMSO)” value ([3]; 0.5 uM)?
**A.** 1.2750

**Q.** And the “CMV-LACZ in Myoblasts (β-galactosidase activity relative to DMSO)” value ([3]; 1 uM)?
**A.** 0.9721

**Q.** What about the “CMV-LACZ in Myoblasts (β-galactosidase activity relative to DMSO)” value ([3]; 5 uM) of the same compound?
**A.** 1.0046

**Q.** What about the “CMV-LACZ in Myoblasts (β-galactosidase activity relative to DMSO)” value ([3]; 10 uM) of the same compound?
**A.** 0.9490

**Q.** And the “CMV-LACZ in Myoblasts (β-galactosidase activity relative to DMSO)” value ([3]; 20 uM)?
**A.** 0.4293

**Q.** And the “CMV-LACZ in Myoblasts (β-galactosidase activity relative to DMSO)” value ([3]; 40 uM)?
**A.** 0.4578

**Q.** What about the “CMV-LACZ in Myotubes, signal relative to DMSO” value ([4]; 0.5 uM) of the same compound?
**A.** 0.8533

**Q.** And the “CMV-LACZ in Myotubes, signal relative to DMSO” value ([4]; 1 uM)?
**A.** 0.9267

**Q.** And the “CMV-LACZ in Myotubes, signal relative to DMSO” value ([4]; 5 uM)?
**A.** 0.9101

**Q.** And the “CMV-LACZ in Myotubes, signal relative to DMSO” value ([4]; 10 uM)?
**A.** 1.0520

**Q.** What about the “CMV-LACZ in Myotubes, signal relative to DMSO” value ([4]; 20 uM) of the same compound?
**A.** 1.0568

**Q.** And the “CMV-LACZ in Myotubes, signal relative to DMSO” value ([4]; 40 uM)?
**A.** 0.8863

**Q.** Which results are given for `O=S(=O)(NC(=NC1CCCCC1)c1ccccc1F)c1ccccc1` [MLS000947910-01]?
**A.** Burkin Assay in Myoblasts, signal relative to DMSO ([1]; 0.5 uM): 1.024; Burkin Assay in Myoblasts, signal relative to DMSO ([1]; 1 uM): 1.188; Burkin Assay in Myoblasts, signal relative to DMSO ([1]; 5 uM): 1.033; Burkin Assay in Myoblasts, signal relative to DMSO ([1]; 10 uM): 1.0429; Burkin Assay in Myoblasts, signal relative to DMSO ([1]; 20 uM): 1.047; Burkin Assay in Myoblasts, signal relative to DMSO ([1]; 40 uM): 1.018; Burkin Assay in Myotubes, α7 integrin LacZ reporter signal relative to DMSO ([2]; 0.5 uM): 1.134; Burkin Assay in Myotubes, α7 integrin LacZ reporter signal relative to DMSO ([2]; 1 uM): 1.101; Burkin Assay in Myotubes, α7 integrin LacZ reporter signal relative to DMSO ([2]; 5 uM): 1; Burkin Assay in Myotubes, α7 integrin LacZ reporter signal relative to DMSO ([2]; 10 uM): 1.035; Burkin Assay in Myotubes, α7 integrin LacZ reporter signal relative to DMSO ([2]; 20 uM): 0.9628; Burkin Assay in Myotubes, α7 integrin LacZ reporter signal relative to DMSO ([2]; 40 uM): 0.9515; CMV-LACZ in Myoblasts (β-galactosidase activity relative to DMSO) ([3]; 0.5 uM): 1.0094; CMV-LACZ in Myoblasts (β-galactosidase activity relative to DMSO) ([3]; 1 uM): 0.9250; CMV-LACZ in Myoblasts (β-galactosidase activity relative to DMSO) ([3]; 5 uM): 0.9452; CMV-LACZ in Myoblasts (β-galactosidase activity relative to DMSO) ([3]; 10 uM): 1.0379; CMV-LACZ in Myoblasts (β-galactosidase activity relative to DMSO) ([3]; 20 uM): 1.0870; CMV-LACZ in Myoblasts (β-galactosidase activity relative to DMSO) ([3]; 40 uM): 1.0500; CMV-LACZ in Myotubes, signal relative to DMSO ([4]; 0.5 uM): 1.0333; CMV-LACZ in Myotubes, signal relative to DMSO ([4]; 1 uM): 0.8348; CMV-LACZ in Myotubes, signal relative to DMSO ([4]; 5 uM): 1.2332; CMV-LACZ in Myotubes, signal relative to DMSO ([4]; 10 uM): 0.8930; CMV-LACZ in Myotubes, signal relative to DMSO ([4]; 20 uM): 1.0165; CMV-LACZ in Myotubes, signal relative to DMSO ([4]; 40 uM): 1.0082

**Q.** `Cc1ccc2c(c1)/C(=C/c1ccccc1F)C(=O)N2` [MLS001202330-01] was tested. Which “Burkin Assay in Myoblasts, value relative to DMSO” value ([1]; 0.5 uM) did it give?
**A.** 0.9738

**Q.** And the “Burkin Assay in Myoblasts, value relative to DMSO” value ([1]; 1 uM)?
**A.** 1.028

**Q.** What about the “Burkin Assay in Myoblasts, value relative to DMSO” value ([1]; 5 uM) of the same compound?
**A.** 0.9558

**Q.** And the “Burkin Assay in Myoblasts, value relative to DMSO” value ([1]; 10 uM)?
**A.** 0.9341

**Q.** And the “Burkin Assay in Myoblasts, value relative to DMSO” value ([1]; 20 uM)?
**A.** 0.8305

**Q.** And the “Burkin Assay in Myoblasts, value relative to DMSO” value ([1]; 40 uM)?
**A.** 0.6468

**Q.** And the “Burkin Assay in Myotubes, value relative to DMSO” value ([2]; 0.5 uM)?
**A.** 0.9709

**Q.** And the “Burkin Assay in Myotubes, value relative to DMSO” value ([2]; 1 uM)?
**A.** 0.9174

**Q.** And the “Burkin Assay in Myotubes, value relative to DMSO” value ([2]; 5 uM)?
**A.** 0.9123

**Q.** What about the “Burkin Assay in Myotubes, value relative to DMSO” value ([2]; 10 uM) of the same compound?
**A.** 1.017

**Q.** And the “Burkin Assay in Myotubes, value relative to DMSO” value ([2]; 20 uM)?
**A.** 0.6303

**Q.** And the “Burkin Assay in Myotubes, value relative to DMSO” value ([2]; 40 uM)?
**A.** 0.6207

**Q.** And the “CMV-LACZ in Myoblasts, value relative to DMSO” value ([3]; 0.5 uM)?
**A.** 0.7417

**Q.** And the “CMV-LACZ in Myoblasts, value relative to DMSO” value ([3]; 1 uM)?
**A.** 0.9325

**Q.** And the “CMV-LACZ in Myoblasts, value relative to DMSO” value ([3]; 5 uM)?
**A.** 1.0099

**Q.** What about the “CMV-LACZ in Myoblasts, value relative to DMSO” value ([3]; 10 uM) of the same compound?
**A.** 0.9082

**Q.** And the “CMV-LACZ in Myoblasts, value relative to DMSO” value ([3]; 20 uM)?
**A.** 0.9511

**Q.** And the “CMV-LACZ in Myoblasts, value relative to DMSO” value ([3]; 40 uM)?
**A.** 0.7619

**Q.** And the “CMV-LACZ in Myotubes, value relative to DMSO” value ([4]; 0.5 uM)?
**A.** 0.8314

**Q.** And the “CMV-LACZ in Myotubes, value relative to DMSO” value ([4]; 1 uM)?
**A.** 0.9562

**Q.** What about the “CMV-LACZ in Myotubes, value relative to DMSO” value ([4]; 5 uM) of the same compound?
**A.** 0.9600

**Q.** And the “CMV-LACZ in Myotubes, value relative to DMSO” value ([4]; 10 uM)?
**A.** 0.8717

**Q.** And the “CMV-LACZ in Myotubes, value relative to DMSO” value ([4]; 20 uM)?
**A.** 0.9168

**Q.** What about the “CMV-LACZ in Myotubes, value relative to DMSO” value ([4]; 40 uM) of the same compound?
**A.** 0.8242
